In US11377442B2, “Small molecule agonists and antagonists of NR2F6 activity” (ZANDER THERAPEUTICS, INC., priority 2016, dated 2022):

Key:
Type in all cases: cell-based
NR2F6 = molecular target: T1, NR2F6 (Homo sapiens, UniProt P10588); test: NR2F6 agonist screening, Firefly signal cmpd/DMSO; settings: clone F4
T1 construct: expressed in transfected cells; also transient transfection
T1 sequence (P10588 1-404): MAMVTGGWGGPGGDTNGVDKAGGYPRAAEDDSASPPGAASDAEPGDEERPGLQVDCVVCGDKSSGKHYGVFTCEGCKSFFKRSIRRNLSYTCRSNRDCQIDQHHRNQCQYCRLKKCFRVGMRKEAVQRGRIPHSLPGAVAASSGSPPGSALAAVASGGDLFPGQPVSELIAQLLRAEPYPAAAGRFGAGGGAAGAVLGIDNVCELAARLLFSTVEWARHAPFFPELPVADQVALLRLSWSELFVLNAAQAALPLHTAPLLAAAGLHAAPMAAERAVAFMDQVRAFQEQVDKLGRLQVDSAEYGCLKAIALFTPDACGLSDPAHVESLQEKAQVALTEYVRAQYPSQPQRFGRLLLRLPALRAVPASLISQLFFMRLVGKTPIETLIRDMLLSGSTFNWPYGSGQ

ERα [1] = molecular target: T2, ERα (Homo sapiens, UniProt P03372); test: Counterscreening, Firefly signal with ERα transient transfection (Firefly_ERa); settings: 10 uM
T2 construct: expressed in transfected cells
T2 sequence (P03372 1-595): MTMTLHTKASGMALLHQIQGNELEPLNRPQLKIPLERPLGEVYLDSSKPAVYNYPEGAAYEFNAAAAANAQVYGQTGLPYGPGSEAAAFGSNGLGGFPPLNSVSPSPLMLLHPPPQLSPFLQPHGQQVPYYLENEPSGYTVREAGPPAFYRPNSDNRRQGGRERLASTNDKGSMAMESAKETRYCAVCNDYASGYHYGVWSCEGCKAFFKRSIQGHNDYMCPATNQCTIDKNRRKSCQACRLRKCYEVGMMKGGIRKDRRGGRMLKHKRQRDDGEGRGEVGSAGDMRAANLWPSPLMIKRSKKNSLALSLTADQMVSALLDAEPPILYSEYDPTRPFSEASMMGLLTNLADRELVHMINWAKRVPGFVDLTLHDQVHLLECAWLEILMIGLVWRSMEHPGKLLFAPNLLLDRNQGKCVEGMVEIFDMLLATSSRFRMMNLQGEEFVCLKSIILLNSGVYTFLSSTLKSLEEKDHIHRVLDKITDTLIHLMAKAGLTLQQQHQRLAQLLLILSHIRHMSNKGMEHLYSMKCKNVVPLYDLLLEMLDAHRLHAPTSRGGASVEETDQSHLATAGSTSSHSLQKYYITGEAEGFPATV
Method: The methodology for screening candidate compounds as NR2F6 agonists was as follows: For primary screening, hit criteria was ACT %>DMSO control+5*SD (DSO control) at 10 μM, or any compound with S/B>2. For rescreening, hit criteria was ACT %>DMSO control+3*SD (DSO control) in each replicate at 10 μM. For counterscreening, hit criteria was mean ACT<DMSO control+3*SD (DMSO control) with ERα transient transfection in duplicate at 10 μM.

Renilla = Renilla signal in NR2F6 agonist screening, cmpd/DMSO; settings: clone F4; for fold induction at 2 µM / fold induction at 10 µM / fold induction at 40 µM: Renilla, read-out: Renilla F4, cmpd/DMSO (mean)
Renilla_ERa = test: Renilla signal in ERα counterscreen (Renilla_ERa); settings: for fold induction at 2 µM / fold induction at 10 µM / fold induction at 40 µM: read-out: Renilla ERalpha transient, cmpd/DMSO (mean)
ERα [2] = molecular target: T2, ERα; test: Counterscreening, Firefly signal with ERα transient transfection (Firefly_ERa)

Row | Firefly F4, cmpd/DMSO (mean) (NR2F6; 2 uM) | Firefly F4, cmpd/DMSO (mean) (NR2F6; 10 uM) | Firefly F4, cmpd/DMSO (mean) (NR2F6; 40 uM) | Firefly ERalpha transient, cmpd/DMSO (mean) (ERα [1]) | Firefly ERalpha transient, cmpd/DMSO (mean) (ERα [2]; 2 uM) | Firefly ERalpha transient, cmpd/DMSO (mean) (ERα [2]; 40 uM) | SMILES | fold induction at 2 µM (Renilla; 2 uM) | fold induction at 10 µM (Renilla; 10 uM) | fold induction at 40 µM (Renilla; 40 uM) | fold induction at 2 µM (Renilla_ERa; 2 uM) | fold induction at 10 µM (Renilla_ERa; 10 uM) | fold induction at 40 µM (Renilla_ERa; 40 uM) | Renilla F4, cmpd/DMSO (mean) (Renilla; 2 uM) | Renilla F4, cmpd/DMSO (mean) (Renilla; 10 uM) | Renilla F4, cmpd/DMSO (mean) (Renilla; 40 uM) | Renilla ERalpha transient, cmpd/DMSO (mean) (Renilla_ERa; 2 uM) | Renilla ERalpha transient, cmpd/DMSO (mean) (Renilla_ERa; 10 uM) | Renilla ERalpha transient, cmpd/DMSO (mean) (Renilla_ERa; 40 uM)
1 | 1.2 | 0.9 | 0.6 | 0.5 | 1.0 | 0.6 | CCOC(=O)Cc1sc(Nc2nc(C)cc(C)n2)nc1-c1ccccc1 [Compound 28] | 1.1 | 0.8 | 0.6 | 1.2 | 0.8 | 0.7 |  |  |  |  |  | 
2 | 0.9 | 1.4 | 1.5 | 1.7 | 1.2 | 2.2 | Cc1cc(C)nc(Nc2nc(-c3ccccc3)c(CC(=O)O)s2)n1 [Compound 29] | 0.8 | 0.9 | 0.8 | 1.1 | 1 | 1.1 |  |  |  |  |  | 
3 | 1.5 | 1.6 | 1.8 | 1.5 | 1.1 | 1.3 | Cc1cc(-c2ccccc2)nc(Nc2nc(-c3ccccc3)c(CC(=O)O)s2)n1 [Compound 30] | 1.2 | 2.3 | 3.4 | 1.2 | 1.2 | 1 |  |  |  |  |  | 
4 | 0.8 | 1.3 | 0.8 | 1.2 | 1.2 | 0.7 | O=c1cccc2n1CC1CC2CN(c2nc(NCCC3=CCCCC3)nc(N3CCCC3)n2)C1 (stereo not drawn) [Compound 32] | 1.2 | 1.4 | 1 | 1.2 | 1.3 | 1.1 |  |  |  |  |  | 
5 | 0.8 | 1.0 | 1.1 | 1.3 | 1.3 | 1.4 | O=c1cccc2n1CCN(c1nc(NCC3CCCO3)nc(N3CCOCC3)n1)C2 (stereo not drawn) [Compound 33] |  |  |  |  |  |  | 1.2 | 1.3 | 1.4 | 1.2 | 1.1 | 1.3
6 | 0.9 | 0.8 | 0.9 | 1.2 | 1.1 | 1.2 | CC(C)Nc1nc(N2CCOCC2)nc(N2CCn3c(cccc3=O)C2)n1 [Compound 34] |  |  |  |  |  |  | 0.9 | 1.1 | 0.9 | 1.0 | 1.1 | 1.1

Row | SMILES | Firefly F4, cmpd/DMSO (mean) (NR2F6; 2 uM) | Firefly F4, cmpd/DMSO (mean) (NR2F6; 10 uM) | Firefly F4, cmpd/DMSO (mean) (NR2F6; 40 uM) | Firefly ERalpha transient, cmpd/DMSO (mean) (ERα [1]) | Firefly ERalpha transient, cmpd/DMSO (mean) (ERα [2]; 2 uM) | Firefly ERalpha transient, cmpd/DMSO (mean) (ERα [2]; 40 uM) | fold induction at 2 µM (Renilla; 2 uM) | fold induction at 10 µM (Renilla; 10 uM) | fold induction at 40 µM (Renilla; 40 uM) | fold induction at 2 µM (Renilla_ERa; 2 uM) | fold induction at 10 µM (Renilla_ERa; 10 uM) | fold induction at 40 µM (Renilla_ERa; 40 uM) | Renilla F4, cmpd/DMSO (mean) (Renilla; 2 uM) | Renilla F4, cmpd/DMSO (mean) (Renilla; 10 uM) | Renilla F4, cmpd/DMSO (mean) (Renilla; 40 uM) | Renilla ERalpha transient, cmpd/DMSO (mean) (Renilla_ERa; 2 uM) | Renilla ERalpha transient, cmpd/DMSO (mean) (Renilla_ERa; 10 uM) | Renilla ERalpha transient, cmpd/DMSO (mean) (Renilla_ERa; 40 uM)
7 | O=c1cccc2n1CC1CC2CN(c2nc(N3CCOCC3)nc(N3CCOCC3)n2)C1 (stereo not drawn) [Compound 31] | 0.8 | 1.0 | 0.9 | 1.2 | 0.8 | 1.0 | 1 | 1 | 1 | 1 | 1.1 | 1.1 |  |  |  |  |  | 
